EC50 data for ten compounds are collected here from PubChem BioAssay AID1794803 (Yongcheng Song lab at Baylor College of Medicine, 2022).

The source made the active and inactive calls.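 How the source made its calls: active means EC50 under 50 µM in a live-cell viability test; inactive means the rest.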

The experiment has as its system NB4 APL cells, proliferation, XTT absorbance. The experiment can be described thus: growth inhibition of NB4 leukemia cells, dose response, AHD inhibitor project, cell-based, XTT viability (AID 1794803).
One may read the EC50 as the midpoint of the concentration-response curve. For `O=C(NCC1CCNCC1)c1coc2cc(-c3ccc(N4CCCCC4)cc3)ccc12`, the EC50 was 11 µM.

With `O=C(NCC1CCNCC1)c1c[nH]c2cc(-c3ccc(N4CCCC4)cc3)ccc12`, the EC50 was 50 µM. As for `O=C(NCC1CCNCC1)c1cc2ccc(-c3ccc(N4CCCC4)cc3)cc2s1`, the EC50 was 10 µM. For `O=C(NCC1CCNCC1)c1cc2cc(-c3ccc(N4CCCCC4)cc3)ccc2s1` the value was 9.4 µM.

For `O=C(NCC1CCNCC1)c1c[nH]c2cc(-c3ccc(N4CCCCC4)cc3)ccc12`, the EC50 was 32 µM. For `O=C(NCC1CCNCC1)c1cc2ccc(-c3ccc(N4CCCCC4)cc3)cc2s1` the value was 5.3 µM. For `NCc1ccc(-c2ccc3cc(C(=O)NCC4CCNCC4)oc3c2)cc1` the value was > 51 µM (inactive). For `NC(=O)c1ccc(-c2ccc3cc(C(=O)NCC4CCNCC4)sc3c2)cc1` the value was > 51 µM (inactive); for `O=C(NCC1CCNCC1)c1cc2cc(-c3ccc(N4CCCCC4)cc3)ccc2[nH]1`, > 51 µM (inactive). On to `O=C(NCC1CCNCC1)c1cc2cc(-c3cn[nH]c3)ccc2[nH]1`, for which the EC50 was > 51 µM (inactive).
